Entries after “also recorded” stand apart in the source; their conditions may differ.
Experiments:
[1] = test system: CCl4-induced liver fibrosis; settings: Sprague-Dawley rats, CCl4 i.p. 6 weeks, then 50 or 100 μg/kg i.p. twice a week for two or four weeks
Experimental: Twenty-four adult male Sprague-Dawley rats (500-600 g) were divided into 4 groups (n=6), the first group (control) was injected with carbon tetrachloride (CCl4) intraperitonally (i.p.) twice per week for 6 weeks to induce liver fibrosis. […] At the end of the experimentation, the different groups of rats were sacrificed and samples of the liver were collected and fixed in 4% buffered formalin for 24 hours. Paraffin embedded samples were sectioned for histology and immunohistochemistry. Liver samples were also collected and stored in −20° C. for Western Blot Analysis and RT-PCR quantification.

[2] = test system: activated rat hepatic stellate cells; settings: 5-10 μM
Experimental: The isolation of the rat hepatic stellate cells: The liver of an adult male Sprague-Dawley rats (500-600 g) were excised out after perfusion with pronase and collagenase. The liver tissue was homogenized and centrifuged. […] The cells were cultured in DMEM (Dulbecco Meliorated Eagle Medium) with 20% FBS inside culture plates at a cell density of 1.5×10^5 cells/cm^2. After two days incubation, the culture medium was changed and the cell debris was washed and removed.
The culture condition of rat hepatic stellate cells: The rat hepatic stellate cells were cultured in DMEM containing 20% fetal bovine serum (FBS), penicillin (100 U/ml) and streptomycin (100 ug/ml) at 37° C. in 5% CO2. The culture medium was changed for every fourth day.
The inhibitory effect of 2-(4-morpholinoaniline)-6-cyclohexyl aminopurine on activated rat hepatic stellate cells: The cells were treated with 5-10 μM of 2-(4-morpholinoaniline)-6-cyclohexyl aminopurine for 24 hours. The treated cells were then collected for Microarrays analysis. The treated cells were also processed for immunofluorescence staining and RT-PCR quantification.
The western blot analysis: The cells are disrupted in 200 μl lysis buffer (50 mM NaCl, 20 mM Tris (trihydroxymethyl aminomethane) pH 7.6, 1% Nonidet P-40, 1× protease inhibitor compounds) for 1 hour at 4° C. After incubation, the lysate was centrifuged at 16,000×g for 10 mins. The supernatant was transferred to a new tube and a protein quantification kit was used to quantify the concentration of proteins in each samples. 25 μg of total protein from each sample was loaded into the 10% SDS PAGE gel for analysis. Collagen-I, MMP-2, MMP-3, TIMP-2 and TIMP-3 mouse monoclonal antibodies (Santa Cruz Lab) were used to analyze the samples. Beta-actin and beta-tubulin monoclonal antibodies (1:1000 diluted) were used as internal control and normalization.

In the case of c1nc2c(NC3CCCCC3)nc(Nc3ccc(N4CCOCC4)cc3)nc2[nH]1 [2-(4-morpholinoaniline)-6-cyclohexyl aminopurine], the “Collagen synthesis in liver (histology, FIG. 5)” value [1] was “effective in inhibiting collagen synthesis”, the “Expression and synthesis of matrix metalloproteinases-2 (MMP-2) by activated hepatic stellate cells” value ([2]; treatment for 3 days (FIG. 3B)) was “inhibited them from expressing and synthesizing and MMP-2; also recorded: suppressed activated hepatic stellate cells from expressing and synthesizing MMP-2 and MMP-3” and the “Expression and synthesis of matrix metalloproteinases-3 (MMP-3) by activated hepatic stellate cells” value ([2]; treatment for 3 days (FIG. 3D)) was “inhibited them from expressing and synthesizing MMP-3; also recorded: suppressed activated hepatic stellate cells from expressing and synthesizing MMP-2 and MMP-3”. The “Expression and synthesis of tissue inhibitor of metalloproteinase-2 (TIMP-2) by activated hepatic stellate cells” value ([2]; treatment for 3 days (FIG. 4B)) was “could inhibit activated hepatic stellate cells from expressing and synthesizing TIMP-2; also recorded: could inhibit the cells from producing TIMP-2 and TIMP-3” and the “Expression and synthesis of TIMP-3 by activated hepatic stellate cells” value ([2]; treatment for 3 days (FIG. 4D)) was “inhibited them from expressing and synthesizing TIMP-3; also recorded: could inhibit the cells from producing TIMP-2 and TIMP-3”.

From patent US9023385B2, “Pharmaceutical use of 2-(4-morpholinoaniline)-6-cyclohexyl aminopurine and/or salt thereof for improving liver functioning” (Zhangzhou Pien Tze Huang Pharmaceutical Co., Ltd., priority 2011, dated 2015)
